# Measured values as given in patent publication US6818219B1, “Reagent for detecting and monitoring viral infections” (Institut Pasteur de Lille, priority 1997, dated 2004).
# Tested on: anti-VCAp18 antibodies of EBV-positive sera
# Assay: Measurement of the binding affinity to the antibody (method of FRIGUET, ELISA inhibition by soluble VCAp18/SEQ ID No. 2)
# Parameters: species or system human
# Conditions: increasing concentrations of soluble peptide
# Protocol: The specificity of the binding of the positive sera to the different mixotopes in solid phase is evaluated by the absorption of the antibodies by the native antigen VCAp18/SEQ ID No. 2 in solution, using the method of B. FRIGUET et al. (J. Immunol. Methods, 1985, 77, 305-319).
# This method is based on the measurement of the free antibody concentration by an indirect ELISA method when the antigen VCAp18/SEQ ID No. 2 and the antibodies are in equilibrium in solution.
# The antigen VCAp18/SEQ ID No. 2, at different concentrations (10^−10 M to 2×10^−6 M), is first incubated in solution (PBS-T buffer+2% BSA) with an EBV-positive serum, at a constant concentration (1/50) until the equilibrium state is reached. […]
# After washing with PBS-T buffer, the bound immunoglobulins are detected by addition of peroxidase-coupled goat antibodies anti-human IgG-A-Ms.
# This method gives the displacement curves for the A/Ao bond relative to log(ao). A precise estimation of the mean affinity of the serum containing the anti-VCAp18 antibodies is given by the equation Ao/(Ao−A)=1/ν=1+Kd/ao, in which ao is the total soluble antigen concentration, A and Ao are the absorbance values at 492 nm with or without blocking antigen, respectively, and ν is the bound antibody fraction, if the different conditions set out in FRIGUET et al. are satisfied.
sequence,measurement,value
CAVDTGSGGGGQPHDTAPRGARKKQ [VCAp18/SEQ ID No. 2],inhibition of the binding of the human sera to the 3 mixotopes in solid phase,specifically and strongly inhibited
